Like-named read-outs stand apart in the source and are kept apart here.
Legend:
Assay type in all cases: in vivo
[1] = tested on: goosegrass (Eleusine indica); test: Test E pre-/postemergence greenhouse herbicide test; details: Preemergence, scale 0 to 100
[2] = tested on: morningglory (Ipomoea spp.); test: Test A pre-/postemergence greenhouse herbicide test; details: Ipomoea, 240 h, 0 to 100 scale (0 no effect, 100 complete control), approx. 10 d, read-out: Plant response rating, Morningglory; for pest or weed control at 125 g/ha: 125 g ai/ha; for pest or weed control at 500 g/ha: 500 g ai/ha
Procedure, shortened: (§1)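 Seeds sown in loam–sand blend received a directed preemergence soil spray; postemergence spray was applied at the same time to plants 2–10 cm tall at one- to two-leaf stage. Compounds were in non-phytotoxic solvent with surfactant. Visual injury versus untreated controls after ~10 d in greenhouse, 0–100 scale (100 = complete control).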

[3] = tested on: pigweed (Amaranthus retroflexus); test: as above; details: Amaranthus retroflexus, 240 h, 0 to 100 scale (0 no effect, 100 complete control), approx. 10 d, read-out: Plant response rating, Pigweed; for pest or weed control at 125 g/ha: 125 g ai/ha; for pest or weed control at 500 g/ha: 500 g ai/ha
Procedure, shortened: as §1

[4] = tested on: barnyardgrass (Echinochloa crus-galli); test: as above; details: Echinochloa crus-galli, 240 h, 0 to 100 scale (0 no effect, 100 complete control), approx. 10 d, read-out: Plant response rating, Barnyardgrass; for pest or weed control at 125 g/ha: 125 g ai/ha; for pest or weed control at 500 g/ha: 500 g ai/ha
Procedure, shortened: as §1

corn (Zea mays) = test: as above; details: Zea mays, 240 h, 0 to 100 scale (0 no effect, 100 complete control), approx. 10 d; for Corn plant response rating (crop injury, 0 = no effect, 100 = complete kill) at 125 g/ha: 125 g ai/ha; for Corn plant response rating (crop injury, 0 = no effect, 100 = complete kill) at 500 g/ha: 500 g ai/ha
Procedure, shortened: as §1

[5] = tested on: wheat (Triticum aestivum); test: as above; details: Triticum aestivum, 240 h, 0 to 100 scale (0 no effect, 100 complete control), approx. 10 d, read-out: Plant response rating, Wheat; for plant injury at 125 g/ha: 125 g ai/ha; for plant injury at 500 g/ha: 500 g ai/ha
Procedure, shortened: as §1

[6] = tested on: crabgrass, Large (large crabgrass, Digitaria sanguinalis); test: as above; details: Digitaria sanguinalis, 240 h, 0 to 100 scale (0 no effect, 100 complete control), approx. 10 d, read-out: Plant response rating, Crabgrass, Large; for pest or weed control at 125 g/ha: 125 g ai/ha; for pest or weed control at 500 g/ha: 500 g ai/ha
Procedure, shortened: as §1

[7] = tested on: velvetleaf (Abutilon theophrasti); test: as above; details: Abutilon theophrasti, 240 h, 0 to 100 scale (0 no effect, 100 complete control), approx. 10 d, read-out: Plant response rating, Velvetleaf; for pest or weed control at 125 g/ha: 125 g ai/ha; for pest or weed control at 500 g/ha: 500 g ai/ha
Procedure, shortened: as §1

[8] = tested on: foxtail, giant (giant foxtail, Setaria faberii); test: as above; details: Setaria faberi, 240 h, 0 to 100 scale (0 no effect, 100 complete control), approx. 10 d, read-out: Plant response rating, Foxtail, Giant; for pest or weed control at 125 g/ha: 125 g ai/ha; for pest or weed control at 500 g/ha: 500 g ai/ha
Procedure, shortened: as §1

[9] = tested on: ragweed (common ragweed, Ambrosia elatior); test: Test C pre-/postemergence greenhouse herbicide test; details: for pest or weed control at 31 g/ha / pest or weed control at 62 g/ha / pest or weed control at 125 g/ha / pest or weed control at 250 g/ha: Ambrosia artemisiifolia, Ragweed, read-out: Plant response rating; for pest or weed control at 31 g/ha: 31 g ai/ha; for pest or weed control at 62 g/ha: 62 g ai/ha; for pest or weed control at 125 g/ha: 125 g ai/ha; for pest or weed control at 250 g/ha: 250 g ai/ha; for Plant response rating, Ragweed: visual rating on scale 0 (no effect) to 100 (complete control), 13 to 15 d
Procedure, shortened: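 Seeds in loam–sand blend sprayed preemergence, and 1- to 4-leaf plants (2–18 cm) sprayed postemergence, with compounds in non-phytotoxic solvent plus surfactant. Visual rating versus controls after 13–15 d in greenhouse, 0 (no effect) to 100 (complete control).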

In the case of `COc1cc(=O)n(-c2ccc(C(F)(F)F)cc2)nc1Cc1ccnc(C(F)(F)F)c1` [Compound 16, 5-methoxy-2-[4-(trifluoromethyl)phenyl]-6-[[2-(trifluoromethyl)-4-pyridinyl]methyl]-3(2H)-pyridazinone], the “Plant response rating: Goosegrass” value ([1]; 62 g ai/ha) is reported as 5, the “Plant response rating: Goosegrass” value ([1]; 125 g ai/ha) is reported as 20 and the “Plant response rating: Goosegrass” value ([1]; 250 g ai/ha) is reported as 50. For the same molecule, the pest or weed control at 125 g/ha ([2]; post-emergence, Postemergence) was 90%, the pest or weed control at 500 g/ha ([2]; post-emergence, Postemergence) was 100% and the pest or weed control at 125 g/ha ([2]; pre-emergence, Preemergence) was 80%. It also gave a pest or weed control at 500 g/ha ([2]; pre-emergence, Preemergence) of 80%, a pest or weed control at 125 g/ha ([3]; post-emergence, Postemergence) of 100% and a pest or weed control at 500 g/ha ([3]; post-emergence, Postemergence) of 100%. For the same molecule, the pest or weed control at 125 g/ha ([3]; pre-emergence, Preemergence) was 100%, the pest or weed control at 500 g/ha ([3]; pre-emergence, Preemergence) was 100% and the pest or weed control at 125 g/ha ([4]; post-emergence, Postemergence) was 80%. The pest or weed control at 500 g/ha ([4]; post-emergence, Postemergence) was 90%, the pest or weed control at 125 g/ha ([4]; pre-emergence, Preemergence) was 90% and the pest or weed control at 500 g/ha ([4]; pre-emergence, Preemergence) was 100%. The Corn plant response rating (crop injury, 0 = no effect, 100 = complete kill) at 125 g/ha (corn (Zea mays); post-emergence, Postemergence) was 20%, the Corn plant response rating (crop injury, 0 = no effect, 100 = complete kill) at 500 g/ha (corn (Zea mays); post-emergence, Postemergence) was 80% and the Corn plant response rating (crop injury, 0 = no effect, 100 = complete kill) at 125 g/ha (corn (Zea mays); pre-emergence, Preemergence) was 40%. For the same molecule, the Corn plant response rating (crop injury, 0 = no effect, 100 = complete kill) at 500 g/ha (corn (Zea mays); pre-emergence, Preemergence) was 70%, the plant injury at 125 g/ha ([5]; post-emergence, Postemergence) was 60% and the plant injury at 500 g/ha ([5]; post-emergence, Postemergence) was 70%. The plant injury at 125 g/ha ([5]; pre-emergence, Preemergence) was 20%, the plant injury at 500 g/ha ([5]; pre-emergence, Preemergence) was 70% and the pest or weed control at 125 g/ha ([6]; post-emergence, Postemergence) was 90%. The pest or weed control at 500 g/ha ([6]; post-emergence, Postemergence) was 100%, the pest or weed control at 125 g/ha ([6]; pre-emergence, Preemergence) was 100% and the pest or weed control at 500 g/ha ([6]; pre-emergence, Preemergence) was 100%. The pest or weed control at 125 g/ha ([7]; post-emergence, Postemergence) was 80%, the pest or weed control at 500 g/ha ([7]; post-emergence, Postemergence) was 100% and the pest or weed control at 125 g/ha ([7]; pre-emergence, Preemergence) was 30%. For the same molecule, the pest or weed control at 500 g/ha ([7]; pre-emergence, Preemergence) was 80%, the pest or weed control at 125 g/ha ([8]; post-emergence, Postemergence) was 90% and the pest or weed control at 500 g/ha ([8]; post-emergence, Postemergence) was 90%. It also gave a pest or weed control at 125 g/ha ([8]; pre-emergence, Preemergence) of 100%, a pest or weed control at 500 g/ha ([8]; pre-emergence, Preemergence) of 100% and a pest or weed control at 31 g/ha ([9]; post-emergence, Postemergence) of 15%. It also gave a pest or weed control at 62 g/ha ([9]; post-emergence, Postemergence) of 25%, a pest or weed control at 125 g/ha ([9]; post-emergence, Postemergence) of 60% and a pest or weed control at 250 g/ha ([9]; post-emergence, Postemergence) of 60%. The pest or weed control at 31 g/ha ([9]; pre-emergence, Preemergence) was 20%, the pest or weed control at 62 g/ha ([9]; pre-emergence, Preemergence) was 65% and the pest or weed control at 125 g/ha ([9]; pre-emergence, Preemergence) was 65%. For the same molecule, the pest or weed control at 250 g/ha ([9]; pre-emergence, Preemergence) was 100%.

`CCOc1cc(=O)n(-c2ccc(F)cc2)nc1C(O)c1ccnc(C(F)(F)F)c1` (stereo not shown) [Compound 23, 5-ethoxy-2-(4-fluorophenyl)-6-[hydroxy[2-(trifluoromethyl)-4-pyridinyl]methyl]-3(2H)-pyridazinone] gave a pest or weed control at 125 g/ha ([2]; post-emergence, Postemergence) of 20%, a pest or weed control at 500 g/ha ([2]; post-emergence, Postemergence) of 60% and a pest or weed control at 125 g/ha ([2]; pre-emergence, Preemergence) of 100%. It also gave a pest or weed control at 500 g/ha ([2]; pre-emergence, Preemergence) of 100%, a pest or weed control at 125 g/ha ([3]; post-emergence, Postemergence) of 100% and a pest or weed control at 500 g/ha ([3]; post-emergence, Postemergence) of 100%. The pest or weed control at 125 g/ha ([3]; pre-emergence, Preemergence) was 100%, the pest or weed control at 500 g/ha ([3]; pre-emergence, Preemergence) was 100% and the pest or weed control at 125 g/ha ([4]; post-emergence, Postemergence) was 20%. It also gave a pest or weed control at 500 g/ha ([4]; post-emergence, Postemergence) of 100%, a pest or weed control at 125 g/ha ([4]; pre-emergence, Preemergence) of 20% and a pest or weed control at 500 g/ha ([4]; pre-emergence, Preemergence) of 100%. It also gave a Corn plant response rating (crop injury, 0 = no effect, 100 = complete kill) at 125 g/ha (corn (Zea mays); post-emergence, Postemergence) of 50%, a Corn plant response rating (crop injury, 0 = no effect, 100 = complete kill) at 500 g/ha (corn (Zea mays); post-emergence, Postemergence) of 90% and a Corn plant response rating (crop injury, 0 = no effect, 100 = complete kill) at 125 g/ha (corn (Zea mays); pre-emergence, Preemergence) of 0%. It also gave a Corn plant response rating (crop injury, 0 = no effect, 100 = complete kill) at 500 g/ha (corn (Zea mays); pre-emergence, Preemergence) of 20%, a plant injury at 125 g/ha ([5]; post-emergence, Postemergence) of 80% and a plant injury at 500 g/ha ([5]; post-emergence, Postemergence) of 90%. For the same molecule, the plant injury at 125 g/ha ([5]; pre-emergence, Preemergence) was 0%, the plant injury at 500 g/ha ([5]; pre-emergence, Preemergence) was 90% and the pest or weed control at 125 g/ha ([6]; post-emergence, Postemergence) was 60%. The pest or weed control at 500 g/ha ([6]; post-emergence, Postemergence) was 100%, the pest or weed control at 125 g/ha ([6]; pre-emergence, Preemergence) was 100% and the pest or weed control at 500 g/ha ([6]; pre-emergence, Preemergence) was 100%. It also gave a pest or weed control at 125 g/ha ([7]; post-emergence, Postemergence) of 20%, a pest or weed control at 500 g/ha ([7]; post-emergence, Postemergence) of 70% and a pest or weed control at 125 g/ha ([7]; pre-emergence, Preemergence) of 80%. The pest or weed control at 500 g/ha ([7]; pre-emergence, Preemergence) was 100%, the pest or weed control at 125 g/ha ([8]; post-emergence, Postemergence) was 50% and the pest or weed control at 500 g/ha ([8]; post-emergence, Postemergence) was 90%. For the same molecule, the pest or weed control at 125 g/ha ([8]; pre-emergence, Preemergence) was 100%, the pest or weed control at 500 g/ha ([8]; pre-emergence, Preemergence) was 100% and the pest or weed control at 31 g/ha ([9]; pre-emergence, Preemergence) was 60%. The pest or weed control at 62 g/ha ([9]; pre-emergence, Preemergence) was 55%, the “Plant response rating, Ragweed” value ([9]; Preemergence, 8 g ai/ha) was 0 and the “Plant response rating, Ragweed” value ([9]; Preemergence, 16 g ai/ha) was 60.

From patent US10202361B2, “Pyridazinones as herbicides” (E I DU PONT DE NEMOURS AND COMPANY, priority 2014, dated 2019)
